Converted amounts (≈) assume the structure as drawn.
Columns and labels:
Format in all cases: cell-based
K. pneumoniae = test: FIC checkerboard testing with colistin (FICI); settings: in combination with colistin
Description: For FIC testing, test ranges were set based on broth microdilution MIC test data. The wells of a standard 96-well microdilution plate (Costar) were filled with 150 μL of water in columns 2 through 12. A 300 μL aliquot of colistin at 40X the highest final concentration to be tested was added to each well in Column 1 of the plate. The Biomek 2000 was used to make eleven 2-fold serial dilutions in the “combination agent parental” plate from columns 2 through 11. The wells of the “test-agent parental” plate were filled with 150 μL of DMSO in rows B through H. Row A of this plate was filled with 300 μL of the DNM compound stock solution at 40X the highest final concentration to be tested. Serial 2-fold dilutions were then prepared from row B-G by hand using a multichannel pipette. The “daughter plates” were loaded with 180 μL of CAMHB using the Multidrop 384. The Biomek FX was used to transfer 5 μL of colistin from each well of the comparator parental plate to the corresponding well in all the daughter plates in a single step. Then a 5 μL aliquot from each well of the test agent parental plate was transferred by hand into the corresponding well of the daughter plate. Row H and Column 12 each contained serial dilutions of test agent and the combination agent alone, respectively, for determination of the MIC. This procedure was repeated for all test agents evaluated in combination with comparators. A standardized inoculum of each organism was prepared per CLSI methods. Colonies were picked from the primary plate and a suspension was prepared to equal a 0.5 McFarland turbidity standard. The suspensions were additionally diluted 1:20 in broth. A 10 μL standardized inoculum was delivered into each well using the Biomek 2000 from low to high concentration. These inoculations yielded a final cell concentration in the daughter plates of […]. Thus, the wells of the daughter plates ultimately contained […], 5 μL of test agent, 5 μL of the colistin, and 10 μL of inoculum. […] Plates were covered with a lid on the top plate, placed in plastic bags, and incubated at 35 °C for ~18 h. Plates were viewed from the bottom using a plate viewer. Prepared reading sheets were marked for the MIC of the combination agent, the MIC of test agent, and the wells of the growth-no growth interface for wells containing test agent and combination agent at varying ratios. […] For each relevant row of the panel, the FIC index (FICI) and mean FICI was calculated by: FICdrug A/MICdrug A + FICdrug B/MICdrug B = FIC index (FICI). The mean FICI for the combination was interpreted as follows: <0.5 = synergy, >0.5–4 = additive/indifferent, and >4 = antagonism. Microbiological measurements were performed and evaluated with Micromyx LLC (Kalamazoo, MI, USA).

COS7 cells = test: in vitro; settings: COS7 cells
Description: (§1) Stock solutions of the test agents were prepared in DMSO (40 mg/mL) and stored at −20 °C until use. AlamarBlue HS™ cell viability reagent was acquired from Invitrogen (Cat # A50100, Carlsbad, CA). COS7 and HEK293 cells (obtained from ATCC) were cultured and tested at 37 °C in a 5% CO2/100% humidity environment in DMEM media supplemented with 10% fetal bovine serum. Cells were trypsinized, centrifuged, resuspended in cell media, counted on a hemacytometer, and diluted to an appropriate cell density to give the desired number of cells per 300 μl media. Cells were then loaded into 48-well cell culture plates (3548; Corning, Inc.); 300 μl/well at 60,000 cells per well. The cell density was determined in preliminary tests to give linear AlamarBlue HS™ readings over a 3.5 h period for HEK293 cells and 2 h period for COS7 cells after 2 days of growth; 2 wells per plate were loaded with 300 μl/well of cell-free media to provide background readings. Plates were cultured overnight, after which test agent solutions were prepared in media at the highest test concentration (100 ug/mL) and at five serial dilutions, each containing 0.25% DMSO and 0.125% Kolliphor® EL (Cat# 27963, Sigma Aldrich). The compounds concentrations were then loaded in separate columns via 300 μl/well. […] Normalized values representing the amount of AlamarBlue converted to its […] form were calculated for each well using background-corrected absorbances as described by the Alamar-Blue HS protocol information packet available from Invitrogen Technical Support. The fraction of control viability for each agent concentration with each cell line was then determined by the ratio of normalized values for the treated wells to the control wells. […] Values were determined by linear interpolation of fraction of control growth against concentration for the test agent concentrations.

HEK293 cells = test: in vitro
Description: as §1

P. aeruginosa ATCC 27853 = test: MIC alone and MIC of colistin in combination with DNM compounds; settings: compound alone, bracket after colistin value is a range (0.25-4)
Description: (§2) The medium employed for the assay was Mueller Hinton II Broth (MHB II; Becton-Dickinson, Sparks, MD, USA). Agar plates used for the organisms were trypticase soy agar plus 5% sheep blood (BD; Sparks, MD, USA). MIC assay plates were prepared using the CLSI broth microdilution procedure. Automated liquid handlers (Multidrop 384, Biomek 2000 and Biomek FX) were used to conduct serial dilutions and liquid transfers. A standardized inoculum of each organism was prepared per CLSI methods. Suspensions were prepared to equal a 0.5 McFarland standard, followed by a 1:20 dilution in test media. The inocula were dispensed into sterile reservoirs divided by length (Beckman Colter) and the Biomek 2000 was used to inoculate the plates. Daughter plates were placed on the Biomek 2000 work surface in reverse orientation so that inoculation took place from low to high drug concentration. The Biomek 2000 delivered 10 μL of the diluted suspension into each well. These inoculations yielded a final cell concentration in the daughter plates of ~5 × 10^5 colony-forming units/mL in each well. The wells of the daughter plates ultimately contained 185 μL of broth, 5 μL of drug solution, and 10 μL of bacterial inoculum. Plates were covered with a sterile lid on the top plate, placed in plastic bags, and incubated at 35 °C for ~18 h. The microplates were viewed from the bottom using a plate viewer and the MIC was read. The MIC was recorded as the lowest concentration of drug that inhibited visible growth of the organism. Uninoculated solubility control plates were also observed for evidence of drug precipitation.
(§3) Compound K. pneumoniae A. baumannii E. coli P. aeruginosa […]
(§4) Supplementary Table 3. Minimum inhibitory concentration (MIC; µg/ml) of DNM
(§5) compounds that show potential synergy in combination with colistin. […]

A. baumannii ATCC 19606 = test: as above; settings: compound alone
Description: as §2, §3, §4, §5

E. coli ATCC 25922 = test: as above; settings: compound alone, bracket after colistin value is a range (0.25-2)
Description: as §2, §3, §4, §5

K. pneumoniae MMX8390 = test: as above; settings: compound alone
Description: as §2, §3, §4, §5

## Cc1cc(Cl)ccc1-c1cc(C(N)=O)sc1-c1ccc(Cl)cc1C [DNM0652]
K. pneumoniae; K. pneumoniae (ATCC 13883)
  Mean FICI: 0.19
K. pneumoniae; K. pneumoniae (FDA-CDC AR-BANK0040)
  Mean FICI: 0.41
K. pneumoniae; K. pneumoniae (FDA-CDC AR-BANK0046)
  Mean FICI: 0.4
K. pneumoniae; K. pneumoniae (FDA-CDC AR-BANK0047)
  Mean FICI: 0.3
K. pneumoniae; K. pneumoniae (FDA-CDC AR-BANK0087)
  Mean FICI: 0.38
K. pneumoniae; K. pneumoniae (FDA-CDC AR-BANK0097)
  Mean FICI: 0.34
K. pneumoniae; K. pneumoniae (FDA-CDC AR-BANK0106)
  Mean FICI: 0.32
K. pneumoniae; K. pneumoniae (FDA-CDC AR-BANK0109)
  Mean FICI: 0.35
K. pneumoniae; K. pneumoniae (FDA-CDC AR-BANK0125)
  Mean FICI: 0.32
K. pneumoniae; K. pneumoniae (FDA-CDC AR-BANK0364)
  Mean FICI: 0.29
K. pneumoniae; K. pneumoniae (FDA-CDC AR-BANK0454)
  Mean FICI: 0.28
K. pneumoniae; each strain of the Klebsiella panel
  interpretation of mean FICI: Synergy
COS7 cells; 24 h
  LC50: 37 µg/mL (≈ 98.3 µM)
COS7 cells; 24 hrs
  IC50 (cell viability): 37.434 µg/mL (≈ 99.5 µM)
HEK293 cells; HEK293 cells, 24 h
  LC50: 35 µg/mL (≈ 93 µM)
HEK293 cells; Hek293 cells, 24 hrs
  IC50 (cell viability): 35.256 µg/mL (≈ 93.7 µM)
  Log IC50 (cell viability): 4.547
P. aeruginosa ATCC 27853
  MIC: > 64 µg/mL
A. baumannii ATCC 19606
  MIC: > 64 µg/mL
E. coli ATCC 25922
  MIC: > 64 µg/mL
K. pneumoniae MMX8390
  MIC: > 64 µg/mL
